Tests used:
off-target kinases = details: 10 μM
Source text: (§1) The compound was run in duplicate at a concentration of ATP near the Km for each individual kinase according to Millipore's specifications.

BLK_m = target: T1, BLK_m (Mus musculus, UniProt P16277); assay: KinaseProfiler BLK_m; format: biochemical; details: 10 μM, ATP near Km
T1 construct: purchased Millipore (KinaseProfiler service)
Source text: as §1

CAMK1d = target: T2, CAMK1d (Homo sapiens, UniProt Q8IU85); assay: KinaseProfiler CAMK1d; format: biochemical; details: 10 μM, ATP near Km
T2 construct: purchased Millipore (KinaseProfiler service)
Source text: as §1

CAMK4 = target: T3, CAMK4 (Homo sapiens, UniProt Q16566); assay: KinaseProfiler CAMK4; format: biochemical; details: 10 μM, ATP near Km
T3 construct: purchased Millipore (KinaseProfiler service)
Source text: as §1

CK1gamma3 = target: T4, CK1gamma3 (Homo sapiens, UniProt Q9Y6M4); assay: KinaseProfiler CK1gamma3; format: biochemical; details: 10 μM, ATP near Km
T4 construct: purchased Millipore, Inc. (KinaseProfiler service)
Source text: as §1

CLK2 = target: T5, CLK2 (Homo sapiens, UniProt P49760); assay: KinaseProfiler CLK2; format: biochemical; details: 10 μM, ATP near Km
T5 construct: purchased Millipore, Inc. (KinaseProfiler service)
Source text: as §1

CSK = target: T6, CSK (Homo sapiens, UniProt P41240); assay: KinaseProfiler CSK; format: biochemical; details: 10 μM, ATP near Km
T6 construct: purchased Millipore, Inc. (KinaseProfiler service)
T6 sequence (P41240 whole entry): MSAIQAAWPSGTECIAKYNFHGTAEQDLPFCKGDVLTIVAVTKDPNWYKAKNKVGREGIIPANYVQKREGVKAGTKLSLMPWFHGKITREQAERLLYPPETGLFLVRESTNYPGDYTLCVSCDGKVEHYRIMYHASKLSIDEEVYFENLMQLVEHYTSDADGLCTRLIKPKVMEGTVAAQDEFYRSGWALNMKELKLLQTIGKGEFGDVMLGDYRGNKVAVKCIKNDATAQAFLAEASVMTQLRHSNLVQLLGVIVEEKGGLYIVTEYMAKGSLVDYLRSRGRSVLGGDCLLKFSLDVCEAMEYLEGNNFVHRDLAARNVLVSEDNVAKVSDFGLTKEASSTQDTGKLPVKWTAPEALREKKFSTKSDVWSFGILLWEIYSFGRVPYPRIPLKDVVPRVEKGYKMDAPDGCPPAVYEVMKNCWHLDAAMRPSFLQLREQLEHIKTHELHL
Source text: as §1

eEF-2K = target: T7, eEF-2K (Homo sapiens, UniProt O00418); assay: KinaseProfiler eEF-2K; format: biochemical; details: 10 μM, ATP near Km
T7 construct: purchased Millipore, Inc. (KinaseProfiler service)
Source text: as §1

EphA8 = target: T8, EphA8 (Homo sapiens, UniProt P29322); assay: KinaseProfiler EphA8; format: biochemical; details: 10 μM, ATP near Km
T8 construct: purchased Millipore, Inc. (KinaseProfiler service)
T8 sequence (P29322 28-1005): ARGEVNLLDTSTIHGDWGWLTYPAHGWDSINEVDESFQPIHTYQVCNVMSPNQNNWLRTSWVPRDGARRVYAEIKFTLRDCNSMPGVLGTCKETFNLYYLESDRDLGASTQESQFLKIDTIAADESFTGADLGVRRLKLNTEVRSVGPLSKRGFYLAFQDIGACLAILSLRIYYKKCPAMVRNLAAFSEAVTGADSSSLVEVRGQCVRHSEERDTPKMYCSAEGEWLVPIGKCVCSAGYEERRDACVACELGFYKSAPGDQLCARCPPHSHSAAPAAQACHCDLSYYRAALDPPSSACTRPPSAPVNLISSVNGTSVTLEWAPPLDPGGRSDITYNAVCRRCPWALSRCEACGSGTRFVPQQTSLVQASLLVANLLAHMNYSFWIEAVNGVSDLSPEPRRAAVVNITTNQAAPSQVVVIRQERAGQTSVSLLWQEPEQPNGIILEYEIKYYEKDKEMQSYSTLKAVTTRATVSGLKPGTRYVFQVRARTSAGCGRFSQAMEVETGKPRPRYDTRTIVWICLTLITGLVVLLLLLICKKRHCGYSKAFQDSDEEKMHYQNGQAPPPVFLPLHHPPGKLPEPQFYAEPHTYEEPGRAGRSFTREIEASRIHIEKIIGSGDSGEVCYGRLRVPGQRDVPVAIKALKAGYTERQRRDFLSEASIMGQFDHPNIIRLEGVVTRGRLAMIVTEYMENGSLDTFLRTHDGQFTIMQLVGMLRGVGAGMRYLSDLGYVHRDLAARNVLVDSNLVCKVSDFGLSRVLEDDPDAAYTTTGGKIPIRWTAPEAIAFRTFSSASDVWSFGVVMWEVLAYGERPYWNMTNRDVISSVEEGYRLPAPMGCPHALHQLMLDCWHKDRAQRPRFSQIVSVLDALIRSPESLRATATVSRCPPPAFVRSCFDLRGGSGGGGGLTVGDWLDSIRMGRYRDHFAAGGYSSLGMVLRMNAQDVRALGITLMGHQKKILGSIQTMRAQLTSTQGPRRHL
Source text: as §1

Flt1 = target: T9, Flt1 (Homo sapiens, UniProt P17948); assay: KinaseProfiler Flt1; format: biochemical; details: 10 μM, ATP near Km
T9 construct: purchased Millipore, Inc. (KinaseProfiler service)
Source text: as §1

GSK3beta = target: T10, GSK3beta (Homo sapiens, UniProt P49841); assay: KinaseProfiler GSK3beta; format: biochemical; details: 10 μM, ATP near Km
T10 construct: purchased Millipore, Inc. (KinaseProfiler service)
T10 sequence (P49841 whole entry): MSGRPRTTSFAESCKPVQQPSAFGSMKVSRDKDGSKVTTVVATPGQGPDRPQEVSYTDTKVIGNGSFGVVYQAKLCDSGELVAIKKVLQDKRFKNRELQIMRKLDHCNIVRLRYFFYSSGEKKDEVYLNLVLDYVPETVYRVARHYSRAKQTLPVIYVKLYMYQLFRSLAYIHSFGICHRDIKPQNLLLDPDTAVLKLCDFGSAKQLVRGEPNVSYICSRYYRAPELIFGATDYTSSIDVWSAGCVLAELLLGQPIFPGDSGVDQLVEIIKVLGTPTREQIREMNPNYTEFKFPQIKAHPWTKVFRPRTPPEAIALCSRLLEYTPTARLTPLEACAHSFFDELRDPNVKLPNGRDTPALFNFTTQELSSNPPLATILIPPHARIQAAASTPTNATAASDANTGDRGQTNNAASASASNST
Source text: as §1

MARK1 = target: T11, MARK1 (Homo sapiens, UniProt Q9P0L2); assay: KinaseProfiler MARK1; format: biochemical; details: 10 μM, ATP near Km
T11 construct: purchased Millipore, Inc. (KinaseProfiler service)
Source text: as §1

MELK = target: T12, MELK (Homo sapiens, UniProt Q14680); assay: KinaseProfiler MELK; format: biochemical; details: 10 μM, ATP near Km
T12 construct: purchased Millipore, Inc. (KinaseProfiler service)
T12 sequence (Q14680 whole entry): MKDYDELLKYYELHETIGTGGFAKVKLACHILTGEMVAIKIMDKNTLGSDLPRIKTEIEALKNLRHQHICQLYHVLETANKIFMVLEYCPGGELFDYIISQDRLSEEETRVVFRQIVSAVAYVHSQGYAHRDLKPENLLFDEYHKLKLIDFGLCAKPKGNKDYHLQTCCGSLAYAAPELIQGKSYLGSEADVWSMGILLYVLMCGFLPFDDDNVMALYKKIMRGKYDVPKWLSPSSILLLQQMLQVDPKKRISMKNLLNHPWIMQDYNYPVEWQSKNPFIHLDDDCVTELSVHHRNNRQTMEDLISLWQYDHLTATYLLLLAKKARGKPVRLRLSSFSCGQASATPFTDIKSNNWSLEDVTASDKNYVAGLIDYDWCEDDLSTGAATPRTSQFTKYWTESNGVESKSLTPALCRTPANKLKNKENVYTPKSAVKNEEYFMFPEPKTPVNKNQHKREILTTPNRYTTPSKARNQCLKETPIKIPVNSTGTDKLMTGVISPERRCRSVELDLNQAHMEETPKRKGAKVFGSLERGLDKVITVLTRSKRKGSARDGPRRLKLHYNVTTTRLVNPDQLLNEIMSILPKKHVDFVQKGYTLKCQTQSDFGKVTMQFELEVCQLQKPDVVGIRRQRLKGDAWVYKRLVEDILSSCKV
Source text: as §1

MINK = target: T13, MINK (Homo sapiens, UniProt Q8N4C8); assay: KinaseProfiler MINK; format: biochemical; details: 10 μM, ATP near Km
T13 construct: purchased Millipore, Inc. (KinaseProfiler service)
T13 sequence (Q8N4C8 whole entry): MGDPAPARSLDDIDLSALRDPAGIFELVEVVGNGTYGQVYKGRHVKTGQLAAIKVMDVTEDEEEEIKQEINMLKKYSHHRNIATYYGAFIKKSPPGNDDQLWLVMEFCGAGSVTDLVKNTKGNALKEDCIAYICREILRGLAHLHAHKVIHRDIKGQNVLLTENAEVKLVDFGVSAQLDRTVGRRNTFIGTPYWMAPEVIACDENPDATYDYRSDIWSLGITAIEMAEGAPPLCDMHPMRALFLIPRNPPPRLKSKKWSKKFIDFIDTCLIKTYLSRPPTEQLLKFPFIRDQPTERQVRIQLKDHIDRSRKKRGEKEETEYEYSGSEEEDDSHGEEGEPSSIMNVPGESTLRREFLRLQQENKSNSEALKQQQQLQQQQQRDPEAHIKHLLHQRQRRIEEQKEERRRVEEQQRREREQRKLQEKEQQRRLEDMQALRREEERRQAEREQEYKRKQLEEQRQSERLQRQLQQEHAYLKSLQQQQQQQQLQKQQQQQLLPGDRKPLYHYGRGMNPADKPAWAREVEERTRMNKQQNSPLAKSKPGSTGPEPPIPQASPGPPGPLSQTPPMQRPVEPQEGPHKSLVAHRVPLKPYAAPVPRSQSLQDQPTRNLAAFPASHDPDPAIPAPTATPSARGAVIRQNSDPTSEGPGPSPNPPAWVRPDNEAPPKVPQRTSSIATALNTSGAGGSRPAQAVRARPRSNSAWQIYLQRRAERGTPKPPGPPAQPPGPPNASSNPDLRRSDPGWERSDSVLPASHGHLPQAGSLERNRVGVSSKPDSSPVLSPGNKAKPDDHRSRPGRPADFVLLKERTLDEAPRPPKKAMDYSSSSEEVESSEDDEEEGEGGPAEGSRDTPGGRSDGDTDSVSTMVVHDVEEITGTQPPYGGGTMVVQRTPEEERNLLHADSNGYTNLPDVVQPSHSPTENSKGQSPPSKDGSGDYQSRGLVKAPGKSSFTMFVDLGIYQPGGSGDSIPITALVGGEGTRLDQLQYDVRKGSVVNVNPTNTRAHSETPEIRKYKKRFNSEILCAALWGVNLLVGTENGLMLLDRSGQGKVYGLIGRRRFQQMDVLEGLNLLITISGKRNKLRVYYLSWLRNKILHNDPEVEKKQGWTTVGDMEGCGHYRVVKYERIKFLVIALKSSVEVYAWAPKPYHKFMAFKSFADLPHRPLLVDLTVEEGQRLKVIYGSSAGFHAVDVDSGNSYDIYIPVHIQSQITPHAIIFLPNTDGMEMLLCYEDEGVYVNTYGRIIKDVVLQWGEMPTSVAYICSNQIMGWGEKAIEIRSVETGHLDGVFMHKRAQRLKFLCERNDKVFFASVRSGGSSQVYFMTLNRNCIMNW
Source text: as §1

mTOR/FKBP12 = target: T14, mTOR/FKBP12 (Homo sapiens, UniProt P42345); assay: KinaseProfiler mTOR/FKBP12; format: biochemical; details: 10 μM, ATP near Km
T14 construct: purchased Millipore, Inc. (KinaseProfiler service)
Source text: as §1

Ros = target: T15, Ros (Homo sapiens, UniProt P08922); assay: KinaseProfiler Ros; format: biochemical; details: 10 μM, ATP near Km
T15 construct: purchased Millipore, Inc. (KinaseProfiler service)
Source text: as §1

Rse = target: T16, Rse (Homo sapiens, UniProt Q06418); assay: KinaseProfiler Rse; format: biochemical; details: 10 μM, ATP near Km
T16 construct: purchased Millipore, Inc. (KinaseProfiler service)
T16 sequence (Q06418 41-890): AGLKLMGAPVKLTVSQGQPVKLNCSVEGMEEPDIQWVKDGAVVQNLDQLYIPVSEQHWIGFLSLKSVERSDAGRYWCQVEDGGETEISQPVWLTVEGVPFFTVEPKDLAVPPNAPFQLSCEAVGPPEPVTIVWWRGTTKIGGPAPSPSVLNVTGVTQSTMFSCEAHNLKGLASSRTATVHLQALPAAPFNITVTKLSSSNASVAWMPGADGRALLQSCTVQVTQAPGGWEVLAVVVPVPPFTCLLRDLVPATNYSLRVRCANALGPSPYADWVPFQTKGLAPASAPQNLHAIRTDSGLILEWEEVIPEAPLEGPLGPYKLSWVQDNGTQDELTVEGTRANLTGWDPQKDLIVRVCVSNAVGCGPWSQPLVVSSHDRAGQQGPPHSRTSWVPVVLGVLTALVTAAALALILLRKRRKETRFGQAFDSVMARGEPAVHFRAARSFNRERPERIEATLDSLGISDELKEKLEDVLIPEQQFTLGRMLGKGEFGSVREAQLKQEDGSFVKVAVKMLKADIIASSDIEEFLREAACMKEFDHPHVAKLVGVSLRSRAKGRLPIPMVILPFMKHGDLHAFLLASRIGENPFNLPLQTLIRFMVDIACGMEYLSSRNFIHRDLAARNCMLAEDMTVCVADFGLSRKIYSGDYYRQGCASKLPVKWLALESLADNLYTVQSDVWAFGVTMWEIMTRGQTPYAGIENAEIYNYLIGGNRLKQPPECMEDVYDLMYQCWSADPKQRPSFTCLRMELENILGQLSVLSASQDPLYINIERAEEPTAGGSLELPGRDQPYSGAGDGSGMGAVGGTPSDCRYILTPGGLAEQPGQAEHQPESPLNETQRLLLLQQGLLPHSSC
Source text: as §1

TSSK1 = target: T17, TSSK1 (Homo sapiens, UniProt Q9BXA7); assay: KinaseProfiler TSSK1; format: biochemical; details: 10 μM, ATP near Km
T17 construct: purchased Millipore, Inc. (KinaseProfiler service)
T17 sequence (Q9BXA7 whole entry): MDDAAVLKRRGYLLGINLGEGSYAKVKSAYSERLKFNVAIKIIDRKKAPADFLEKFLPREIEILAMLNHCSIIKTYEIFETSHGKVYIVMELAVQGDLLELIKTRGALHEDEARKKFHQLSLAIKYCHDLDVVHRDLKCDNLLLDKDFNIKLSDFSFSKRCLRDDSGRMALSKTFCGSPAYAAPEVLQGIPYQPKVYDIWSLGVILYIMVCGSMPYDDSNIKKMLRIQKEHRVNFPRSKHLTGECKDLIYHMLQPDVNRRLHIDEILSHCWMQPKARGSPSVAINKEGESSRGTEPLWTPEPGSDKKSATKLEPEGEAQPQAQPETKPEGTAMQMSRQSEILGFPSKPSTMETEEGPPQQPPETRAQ
Source text: as §1

## Cc1c(-c2cnn(C)c2)nn(-c2ccccc2)c1NC(=O)Nc1cc(C(F)(F)F)nn1-c1ccccc1 [Example 3, 1-(1′,4-dimethyl-1-phenyl-1H,1′H-[3,4′-bipyrazol]-5-yl)-3-(1-phenyl-3-(trifluoromethyl)-1H-pyrazol-5-yl)urea]
off-target kinases
  activity against off-target kinases: largely inactive
BLK_m
  Avg POC: 108.5 POC
CAMK1d
  Avg POC: 138 POC
CAMK4
  Avg POC: 147.5 POC
CK1gamma3
  Avg POC: 125 POC
CLK2
  Avg POC: 135 POC
CSK
  Avg POC: 137.5 POC
eEF-2K
  Avg POC: 148.5 POC
EphA8
  Avg POC: 122 POC
Flt1
  Avg POC: 91.5 POC
GSK3beta
  Avg POC: 195 POC
MARK1
  Avg POC: 112 POC
MELK
  Avg POC: 115 POC
MINK
  Avg POC: 105 POC
mTOR/FKBP12
  Avg POC: 92.5 POC
Ros
  Avg POC: 97 POC
Rse
  Avg POC: 106.5 POC
TSSK1
  Avg POC: 83.5 POC

— US9809578B2, “Pyrazolyl urea, thiourea, guanidine and cyanoguanidine compounds as trkA kinase inhibitors” (Array BioPharma Inc., priority 2012, dated 2017)
